Source: article PMC11238352, “Combination of dual JAK/HDAC inhibitor with regorafenib synergistically reduces tumor growth, metastasis, and regorafenib-induced toxicity in colorectal cancer” (Journal of Experimental & Clinical Cancer Research : CR, 2024)

Experiments:
FGFR2 = target: T1, FGFR2 (Homo sapiens, UniProt P21802); assay: PamStation PTK kinomic profiling; format: cell-based; conditions: SW480, 45 min, change from DMSO control
T1 construct: cell lysates were prepared; endogenous in cells; host or cells: SW480 and RKO
Protocol: (§1) SW480 and RKO cells were treated with vehicle (DMSO), JAK/HDACi, regorafenib, and their combination for 45 min, and cell lysates were prepared. Tyrosine kinase (PTK) activity (kinomic) profiling was performed using the PamStation®12 platform (PamGene, BV, The Netherlands). As per standard kinomic protocol as described previously. Whole-chip comparative analysis (BioNavigator Upkin PTK v8.0) was performed between groups generating Mean Kinase Statistics (direction of change).

FAK1 = target: T2, FAK1 (Homo sapiens, UniProt Q05397); assay: PamStation PTK kinomic profiling; format: cell-based; conditions: change from DMSO control
T2 construct: cell lysates were prepared; endogenous in cells; host or cells: SW480 and RKO
Protocol: as §1

JAK2 = target: T3, JAK2 (Homo sapiens, UniProt O60674); assay: PamStation PTK kinomic profiling; format: cell-based; conditions: change from DMSO control
T3 construct: cell lysates were prepared; endogenous in cells; host or cells: SW480 and RKO
Protocol: as §1

HER2 = target: T4, HER2 (Homo sapiens, UniProt P04626); assay: PamStation PTK kinomic profiling; format: cell-based; conditions: change from DMSO control
T4 construct: cell lysates were prepared; endogenous in cells; host or cells: SW480 and RKO
Protocol: as §1

EphA3 = target: T5, EphA3 (Homo sapiens, UniProt P29320); assay: PamStation PTK kinomic profiling; format: cell-based; conditions: change from DMSO control
T5 construct: cell lysates were prepared; endogenous in cells; host or cells: SW480 and RKO
Protocol: as §1

FLT1 = target: T6, FLT1 (Homo sapiens, UniProt P17948); assay: PamStation PTK kinomic profiling; format: cell-based; conditions: change from DMSO control
T6 construct: endogenous in cells; host or cells: SW480 and RKO
Protocol: as §1

IGF1R = target: T7, IGF1R (Homo sapiens, UniProt P08069); assay: PamStation PTK kinomic profiling; format: cell-based; conditions: change from DMSO control
T7 construct: cell lysates were prepared; endogenous in cells; host or cells: SW480 and RKO
Protocol: as §1

PDGFR[beta] = target: T8, PDGFR[beta] (Homo sapiens, UniProt P09619); assay: PamStation PTK kinomic profiling; format: cell-based; conditions: change from DMSO control
T8 construct: cell lysates were prepared; endogenous in cells; host or cells: SW480 and RKO
Protocol: as §1

EphA8 = target: T9, EphA8 (Homo sapiens, UniProt P29322); assay: PamStation PTK kinomic profiling; format: cell-based; conditions: change from DMSO control
T9 construct: cell lysates were prepared; endogenous in cells; host or cells: SW480 and RKO
Protocol: as §1

HER3 = target: T10, HER3 (Homo sapiens, UniProt P21860); assay: PamStation PTK kinomic profiling; format: cell-based; conditions: change from DMSO control
T10 construct: cell lysates were prepared; endogenous in cells; host or cells: SW480 and RKO
Protocol: as §1

FLT4 = target: T11, FLT4 (Homo sapiens, UniProt P35916); assay: PamStation PTK kinomic profiling; format: cell-based; conditions: change from DMSO control
T11 construct: cell lysates were prepared; endogenous in cells; host or cells: SW480 and RKO
Protocol: as §1

EGFR = target: T12, EGFR (Homo sapiens, UniProt P00533); assay: PamStation PTK kinomic profiling; format: cell-based; conditions: change from DMSO control
T12 construct: cell lysates were prepared; endogenous in cells; host or cells: SW480 and RKO
Protocol: as §1

Src = target: T13, Src (Homo sapiens, UniProt P12931); assay: PamStation PTK kinomic profiling; format: cell-based; conditions: change from DMSO control
T13 construct: cell lysates were prepared; endogenous in cells; host or cells: SW480 and RKO
Protocol: as §1

SW480 cells = assay: Cell cycle analysis by flow cytometry; format: cell-based; conditions: SW480, 24 h, 500 nM
Protocol: To evaluate the effect of drugs on cell cycle arrest, SW480 and RKO cells were seeded, 1 × 10^6/dish in triplicates in four groups: vehicle, JAK/HDACi, regorafenib, and their combination (for 24 h, following procedure described in our previous study. Cell cycle analysis was performed using BD LSR FortessaTM Flow Cytometer (BD Biosciences, Mountain View, CA).

[1] = Pharmacokinetics in plasma; format: in vivo; conditions: given in combination with JAK/HDACi, C57BL/6 mice plasma, 1, 7, 21, 48 h, i.p.
Protocol: Blood samples were collected from C57BL/6 mice treated with regorafenib and JAK-HDACi at 1, 7, 21, or 48 h after treatment, and plasma samples were assayed. The quantifications of regorafenib and JAK-HDACi in plasma were conducted using a Shimadzu LC-20AD LC (Shimadzu, OR) and an API5000 MS (Sciex, MA). For sample preparation, a one-step protein precipitation with acetonitrile was used. Plasma (10 µL) was added into 250 µL of acetonitrile. Chromatographic separation was performed using an ACE Excel 3 C18 column. The mobile phase was (A) 0.1% formic acid in water and (B) 0.1% formic acid in acetonitrile utilizing a gradient from 20% to 75%. The injection volume was 10 µL. The run time was 5 min, and the retention time was 2.4 min. Standard curves for regorafenib and JAK-HDACi in plasma were prepared in the ranges of 5–15,000 ng/ml.

[2] = tested on: luciferase-tagged HT29 cells; assay: HT29 luciferase experimental metastasis model; format: in vivo; conditions: NSG mice
Protocol: To assess the effect of JAK/HDACi, regorafenib and their combination drug treatments on metastasis, an experiment was performed with 6-week-old NOD/SCID/IL2γ receptor-null (NSG) mice (male and female) as described. All procedures and experimental protocols were approved and conducted in compliance (IACUC-21501). For metastasis experiments, as described previously, tail vein injections with HT29 cells (0.5 × 10^6) carrying a luciferase expression construct were conducted. Mice were imaged at 0, 10, and 30 days post injection, and treated with vehicle or drugs (with JAK/HDACi, regorafenib and their combination). Drug treatments were performed as described in PDX experiment. Bioluminescence imaging was accomplished using an IVIS Lumina III instrument (Perkin Elmer, Waltham, MA), and mice were injected with luciferin 10 min prior to imaging. After 30 days, mouse lungs and kidneys were dissected, and ex vivo analyses were performed.

[3] = mouse, in vivo
Description: Upon completion of the experiment for 30 days in HT29 metastasis model, before mice were sacrificed, blood was collected and serum was isolated to evaluate liver and kidney functions to assess toxicity with JAK/HDACi and regorafenib alone, and their combination treatment, using a comprehensive Panel EWrap (Cat# 6330-COMP) by a DRY CHEM 4000 Analyzer.

T5 sequence (P29320 21-983): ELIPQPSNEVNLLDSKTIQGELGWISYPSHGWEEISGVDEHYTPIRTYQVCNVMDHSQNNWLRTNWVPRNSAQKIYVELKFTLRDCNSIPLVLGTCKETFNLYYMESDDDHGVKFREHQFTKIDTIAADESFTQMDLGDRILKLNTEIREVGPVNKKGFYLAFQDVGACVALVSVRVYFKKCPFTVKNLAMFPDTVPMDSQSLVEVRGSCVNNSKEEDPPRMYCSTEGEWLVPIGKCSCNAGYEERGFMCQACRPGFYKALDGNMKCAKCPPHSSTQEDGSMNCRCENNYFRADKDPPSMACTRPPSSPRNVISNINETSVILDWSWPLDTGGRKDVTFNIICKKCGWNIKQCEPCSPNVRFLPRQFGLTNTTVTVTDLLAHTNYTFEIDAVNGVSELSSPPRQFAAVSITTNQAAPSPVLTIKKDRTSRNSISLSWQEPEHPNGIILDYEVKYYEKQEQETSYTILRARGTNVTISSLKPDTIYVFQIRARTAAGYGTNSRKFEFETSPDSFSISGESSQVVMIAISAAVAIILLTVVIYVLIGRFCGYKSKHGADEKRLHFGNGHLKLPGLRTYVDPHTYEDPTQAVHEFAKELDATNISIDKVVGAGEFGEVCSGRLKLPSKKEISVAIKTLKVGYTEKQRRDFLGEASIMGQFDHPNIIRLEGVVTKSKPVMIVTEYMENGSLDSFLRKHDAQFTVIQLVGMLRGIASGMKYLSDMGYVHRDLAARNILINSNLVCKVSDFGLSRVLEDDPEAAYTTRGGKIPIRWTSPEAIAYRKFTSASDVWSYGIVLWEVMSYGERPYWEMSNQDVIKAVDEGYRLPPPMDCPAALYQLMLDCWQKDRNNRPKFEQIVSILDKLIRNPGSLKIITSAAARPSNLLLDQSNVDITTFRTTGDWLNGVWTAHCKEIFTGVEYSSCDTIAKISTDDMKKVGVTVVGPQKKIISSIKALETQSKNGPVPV
T3 sequence (O60674 whole entry): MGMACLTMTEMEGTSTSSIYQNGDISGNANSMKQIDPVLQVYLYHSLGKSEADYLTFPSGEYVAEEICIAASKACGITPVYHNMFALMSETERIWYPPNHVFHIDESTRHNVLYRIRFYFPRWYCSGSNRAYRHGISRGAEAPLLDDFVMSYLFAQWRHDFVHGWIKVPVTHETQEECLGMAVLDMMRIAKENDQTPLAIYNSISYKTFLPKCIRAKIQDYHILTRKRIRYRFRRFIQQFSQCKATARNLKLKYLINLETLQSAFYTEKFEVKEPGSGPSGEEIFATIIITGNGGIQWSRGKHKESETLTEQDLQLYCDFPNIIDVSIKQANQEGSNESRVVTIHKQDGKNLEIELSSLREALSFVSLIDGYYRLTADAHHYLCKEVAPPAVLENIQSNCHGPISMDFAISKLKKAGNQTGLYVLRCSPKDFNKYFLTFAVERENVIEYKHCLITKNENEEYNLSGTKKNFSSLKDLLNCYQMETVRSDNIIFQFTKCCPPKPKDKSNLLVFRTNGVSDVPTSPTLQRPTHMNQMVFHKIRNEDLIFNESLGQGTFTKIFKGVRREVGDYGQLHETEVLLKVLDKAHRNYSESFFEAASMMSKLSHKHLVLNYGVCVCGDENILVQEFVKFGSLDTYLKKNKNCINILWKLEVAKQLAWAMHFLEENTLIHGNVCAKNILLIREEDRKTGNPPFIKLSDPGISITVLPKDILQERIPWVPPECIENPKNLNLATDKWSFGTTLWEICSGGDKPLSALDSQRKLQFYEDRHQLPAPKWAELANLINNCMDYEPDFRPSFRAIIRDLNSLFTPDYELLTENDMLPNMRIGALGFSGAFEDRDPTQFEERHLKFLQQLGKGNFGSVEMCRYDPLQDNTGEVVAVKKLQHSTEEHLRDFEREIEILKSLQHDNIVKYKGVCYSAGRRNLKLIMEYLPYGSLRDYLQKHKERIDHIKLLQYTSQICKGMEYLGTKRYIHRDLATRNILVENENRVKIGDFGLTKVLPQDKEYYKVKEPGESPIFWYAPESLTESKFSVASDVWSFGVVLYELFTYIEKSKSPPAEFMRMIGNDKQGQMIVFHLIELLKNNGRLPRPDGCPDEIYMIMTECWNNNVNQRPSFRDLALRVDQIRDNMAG
T4 sequence (P04626 23-1255): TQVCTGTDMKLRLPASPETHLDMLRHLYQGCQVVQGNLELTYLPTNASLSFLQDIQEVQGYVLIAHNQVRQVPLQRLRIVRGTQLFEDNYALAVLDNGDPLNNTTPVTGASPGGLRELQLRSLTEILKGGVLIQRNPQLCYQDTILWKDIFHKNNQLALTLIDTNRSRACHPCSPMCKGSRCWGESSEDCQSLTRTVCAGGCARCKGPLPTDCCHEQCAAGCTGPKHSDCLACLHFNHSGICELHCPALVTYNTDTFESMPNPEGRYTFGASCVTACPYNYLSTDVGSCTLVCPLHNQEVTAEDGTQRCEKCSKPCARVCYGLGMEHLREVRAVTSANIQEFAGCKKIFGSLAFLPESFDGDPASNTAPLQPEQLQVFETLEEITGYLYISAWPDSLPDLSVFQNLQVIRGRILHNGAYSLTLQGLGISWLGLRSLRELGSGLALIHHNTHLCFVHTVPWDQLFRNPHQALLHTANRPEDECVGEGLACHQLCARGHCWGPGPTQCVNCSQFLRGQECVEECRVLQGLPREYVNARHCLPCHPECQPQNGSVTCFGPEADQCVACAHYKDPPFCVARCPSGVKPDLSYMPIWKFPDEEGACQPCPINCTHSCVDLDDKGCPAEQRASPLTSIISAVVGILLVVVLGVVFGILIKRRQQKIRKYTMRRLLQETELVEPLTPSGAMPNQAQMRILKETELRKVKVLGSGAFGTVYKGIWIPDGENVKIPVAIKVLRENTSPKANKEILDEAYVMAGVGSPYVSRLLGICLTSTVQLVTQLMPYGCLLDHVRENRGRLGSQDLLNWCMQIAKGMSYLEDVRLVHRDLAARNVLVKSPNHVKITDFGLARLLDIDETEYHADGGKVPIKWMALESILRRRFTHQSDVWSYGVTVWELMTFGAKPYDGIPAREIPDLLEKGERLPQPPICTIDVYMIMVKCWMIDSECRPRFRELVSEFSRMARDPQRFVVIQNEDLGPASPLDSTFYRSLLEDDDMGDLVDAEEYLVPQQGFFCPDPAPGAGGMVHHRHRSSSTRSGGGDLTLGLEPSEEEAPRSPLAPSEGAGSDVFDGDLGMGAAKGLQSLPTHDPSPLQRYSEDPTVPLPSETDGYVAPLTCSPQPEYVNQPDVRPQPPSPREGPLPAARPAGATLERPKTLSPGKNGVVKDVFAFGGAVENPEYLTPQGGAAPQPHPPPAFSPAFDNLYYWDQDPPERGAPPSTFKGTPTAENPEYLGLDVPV
T6 sequence (P17948 27-1338): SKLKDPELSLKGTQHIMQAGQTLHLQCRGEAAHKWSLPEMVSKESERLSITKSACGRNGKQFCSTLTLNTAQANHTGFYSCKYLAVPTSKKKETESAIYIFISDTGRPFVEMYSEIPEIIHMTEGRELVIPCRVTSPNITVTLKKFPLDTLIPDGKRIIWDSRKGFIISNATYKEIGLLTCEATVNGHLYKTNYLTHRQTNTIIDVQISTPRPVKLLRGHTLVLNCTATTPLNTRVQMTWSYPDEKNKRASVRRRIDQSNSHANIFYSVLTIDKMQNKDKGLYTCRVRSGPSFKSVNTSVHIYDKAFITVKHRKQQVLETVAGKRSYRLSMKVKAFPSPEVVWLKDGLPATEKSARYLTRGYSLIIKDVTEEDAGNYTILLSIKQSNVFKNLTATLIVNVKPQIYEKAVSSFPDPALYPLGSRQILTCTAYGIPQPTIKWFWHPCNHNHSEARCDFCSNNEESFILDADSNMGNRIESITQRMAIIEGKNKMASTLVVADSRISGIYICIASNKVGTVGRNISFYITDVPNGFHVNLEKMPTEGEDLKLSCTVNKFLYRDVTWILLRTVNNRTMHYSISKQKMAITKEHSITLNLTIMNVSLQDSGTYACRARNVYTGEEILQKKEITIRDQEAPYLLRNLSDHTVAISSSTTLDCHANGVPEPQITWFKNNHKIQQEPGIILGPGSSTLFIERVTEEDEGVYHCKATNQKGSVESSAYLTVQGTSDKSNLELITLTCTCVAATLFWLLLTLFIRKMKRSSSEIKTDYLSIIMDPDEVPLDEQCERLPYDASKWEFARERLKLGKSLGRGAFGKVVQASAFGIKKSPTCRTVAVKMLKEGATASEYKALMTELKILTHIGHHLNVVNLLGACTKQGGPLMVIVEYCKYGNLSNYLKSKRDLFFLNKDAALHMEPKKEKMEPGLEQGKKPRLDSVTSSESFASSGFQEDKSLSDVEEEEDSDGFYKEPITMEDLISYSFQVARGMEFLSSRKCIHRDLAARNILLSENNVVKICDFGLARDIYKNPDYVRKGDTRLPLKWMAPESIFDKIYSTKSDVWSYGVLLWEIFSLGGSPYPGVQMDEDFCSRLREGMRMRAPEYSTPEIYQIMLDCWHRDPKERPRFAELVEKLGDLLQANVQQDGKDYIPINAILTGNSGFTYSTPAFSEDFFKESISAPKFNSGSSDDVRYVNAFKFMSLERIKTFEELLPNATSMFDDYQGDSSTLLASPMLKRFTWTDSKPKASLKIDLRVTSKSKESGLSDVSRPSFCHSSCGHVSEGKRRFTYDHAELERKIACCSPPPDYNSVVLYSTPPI

CNC(=O)c1cc(Oc2ccc(NC(=O)Nc3ccc(Cl)c(C(F)(F)F)c3)c(F)c2)ccn1 [regorafenib]
Mean Kinase Statistic, FGFR2 (FGFR2): -0.279 | Mean Kinase Statistic, FAK1 (FAK1; RKO, 45 min): 0.052 | Mean Kinase Statistic, FAK1 (FAK1; SW480, 45 min): -0.131 | Mean Kinase Statistic, JAK2 (JAK2; RKO, 45 min): 0.236 | Mean Kinase Statistic, JAK2 (JAK2; SW480, 45 min): -0.116 | Mean Kinase Statistic, HER2 (HER2; RKO, 45 min): 0.090 | Mean Kinase Statistic, HER2 (HER2; SW480, 45 min): -0.225 | Mean Kinase Statistic, EphA3 (EphA3; RKO, 45 min): 0.028 | Mean Kinase Statistic, EphA3 (EphA3; SW480, 45 min): -0.136 | Mean Kinase Statistic, FLT1 (FLT1; RKO, 45 min): 0.207 | Mean Kinase Statistic, FLT1 (FLT1; SW480, 45 min): -0.166 | Mean Kinase Statistic, IGF1R (IGF1R; RKO, 45 min): -0.129 | Mean Kinase Statistic, IGF1R (IGF1R; SW480, 45 min): -0.222 | Mean Kinase Statistic, PDGFR[beta] (PDGFR[beta]; RKO, 45 min): 0.140 | Mean Kinase Statistic, PDGFR[beta] (PDGFR[beta]; SW480, 45 min): -0.203 | Mean Kinase Statistic, EphA8 (EphA8; RKO, 45 min): -0.006 | Mean Kinase Statistic, EphA8 (EphA8; SW480, 45 min): -0.155 | Mean Kinase Statistic, HER3 (HER3; RKO, 45 min): 0.047 | Mean Kinase Statistic, HER3 (HER3; SW480, 45 min): -0.158 | Mean Kinase Statistic, FLT4 (FLT4; RKO, 45 min): 0.133 | Mean Kinase Statistic, FLT4 (FLT4; SW480, 45 min): -0.234 | Mean Kinase Statistic, EGFR (EGFR; RKO, 45 min): 0.026 | Mean Kinase Statistic, EGFR (EGFR; SW480, 45 min): -0.125 | Mean Kinase Statistic, Src (Src; RKO, 45 min): -0.068 | Mean Kinase Statistic, Src (Src; SW480, 45 min): -0.128 | cells arrested at the G0-G1 phase (SW480 cells): 39.1% | cells in synthesis (S) phase (SW480 cells): 50% | bioavailability of regorafenib [1]: increased | bioluminescence intensity on day 30th [2]: reduced intensities | ALT [3]: 16 U/L | Albumin/Globulin [3]: 1.0 | Creatinine [3]: 0.4 mg/dL | Globulin [3]: 2.6 g/dL | Total Billirubin [3]: 0.5 mg/dL | toxicity by serum analysis (liver and kidney functions) [3]: no evident toxicity
